Data reported in patent publication US6660722B2, “Therapeutical treatments” (Laboratoires Goemar S.A., priority 2001, dated 2003).

Legend:
[1] = test system: target cells of tumor cell line YAC-1; assay: in vitro cytotoxicity assay of NK cells (mouse splenocytes pre-treated with glucan) on YAC-1 target cells, CYTOTOX 96 LDH release; assay type: cell-based, Balb/c mice; design: stimulated NK cells more cytotoxic than the control: concentration or dose not given beside the values; details: for NK cell killing more active than BEI: versus BEI-stimulated cell killing; for NK cell killing more active than lentinan: versus Lentinan-stimulated NK cell killing; for stimulated NK cells more cytotoxic than the control: versus unstimulated NK cells
Procedure: In that respect, Applicants first carried out an in vitro cytotoxicity assay on spleen cells isolated from spleen of Balb/c mice by standard methods.
These tests were conducted to evaluate the effects of soluble laminarin on the cytotoxicity of NK (Natural Killer) cells of mouse and to compare these effects with those of two known glucans, ie.
The spleens isolated from the above said Balb/c mice were placed into Petri dishes containing RPMI 1640 medium obtained from Life Technologies USA, supplemented with 5% by weight of FCS (fetal calf serum from Life Technologies USA). The spleens were cut into small pieces and a suspension was made by pressing the minced spleens against the bottom of Petri dishes containing PBS (Phosphate Buffered Saline obtained from Biowhitaker Inc,8830 Biggsford Road, Walkersville, Md. 21793 USA). The thus obtained pieces of tissue were gently teased over stainless steel screens using a plunger of a 5-ml syringe. Large debris and cell clumps were removed by layering the cell suspension over 3 ml of heat-inactivated FCS for 10 minutes on ice. After elimination of erythrocytes by incubation during 10 seconds in distilled water and five washes in cold PBS, the thus obtained cells which are called splenocytes, were resuspended in PBS and counted.
The evaluation of the cytotoxicity of these cell suspensions was conducted by suing a non radioactive cytotoxicity assay marketed under the trademark CYTOTOX 96 by Promega, Madison, Wis., USA.
For these experiments, the splenocytes which are also called “effector cells” were pre-treated during 30 minutes by mixing the suspensions containing them respectively with soluble laminarin, with lentinan and with BEI glucan; the mixtures were subsequently incubated with suspensions of target cells of tumor cell line YAC-1 which is known to be relatively […] to normal inactivated N K cells.
The specificity of the assay was established by using the following three different ratios effector cells/target cells denoted ET: 10:1, 50:1 and 100:1.
For each ratio, 3 counts were carried out and experiments were repeated 3 times on 3 different days.
Controls consisted of effector cells incubated only with PBS.
More particularly, the above cell suspensions of splenocytes (effector cells) were diluted to 10^6 cells/ml and placed in individual wells of V-shaped 96-well microplates at a concentration of 0.1 ml/well.
Laminarin, lentinan and BEI glucan which occur in the form of powders, were added after dissolution in PBS at an identical concentration of 2 μg/ml in PBS and the plates were incubated for 30 minutes at 37° C. in an humidified CO2 incubator.
After incubation, the plates i.e. the incubated cells contained in the wells were washed three times with RPMI 1640 medium, and 50 μl of the suspension of target cell line YAC-1 were added in each well, respecting the above “effector cells/target cells” ratios or E T: 10:1, 50:1 and 100:1.
For each of these ratios, 3 individual wells were used, the number of target cells being respectively 10^4,2×10^3 and 1×10^3.
In addition, target cells for spontaneous release control, target cells for maximum release control and effector cells release control were introduced into appropriate wells, i.e. 3 individual wells for each concentration used.
Basically, it is necessary to obtain the values of spontaneous release from both target and effector cells, and these values serve as a background. The maximum release control serves as 100%.
After spinning the plates at 250 g for 5 minutes in a centrifuge, the plates were incubated for 4 hours at 35° C. in a humidified CO2 incubator.
For evaluating the cytotoxicity activity of the effector or N K cells, procedure was as follows, using the instructions of the manufacturer PROMEGA.
A quantity of 10 μl of lysis solution, included in the Kit, was added 45 min before the end of incubation into appropriate control wells, i.e. into wells with maximum release control. […]

[2] = test system: mouse breast cancer cell line 64 Ptas; assay: tumor growth in vivo in mice inoculated with breast cancer cells; details: daily intraperitoneal injection during 14 days; doses 100 and 250 μg per injection (dose of the value not stated)
Procedure: The above said data have been confirmed by additional experiments where the effects of soluble laminarin on tumor growth in vivo were evaluated; yeast derived glucan BEI was used for comparison.
In these additional experiments, mice were inoculated with mouse breast cancer cell line 64 Ptas. Experimental treatment was achieved by daily intraperitoneal injection during 14 days of two different doses of soluble laminarin and BEI diluted in PBS; the said two different doses were respectively 100 and 250 μg of laminarin per injection.
At the end of the 14 days treatment, the mice were killed, tumors were removed and weighted.

oral LD 50 in rats = assay type: in vivo; details: given orally in rats
Procedure: Its LD 50 is high and was determined as to be greater than 2000 mg/Kg given orally in rats; furthermore there are no special handling requirements.

[3] = solubility of soluble laminarin; assay type: physicochemical

With laminarin [soluble laminarin] the “NK cell killing more active than BEI” value ([1]; ET 10:1) was 132%, the “NK cell killing more active than lentinan” value ([1]; ET 10:1) was 133% and the “stimulated NK cells more cytotoxic than the control” value ([1]; ET 10:1) was 245%. For the same substance, the “NK cell killing more active than BEI” value ([1]; ET 50:1) was 122%, the “NK cell killing more active than lentinan” value ([1]; ET 50:1) was 123% and the “stimulated NK cells more cytotoxic than the control” value ([1]; ET 50:1) was 196%. For the same substance, the “NK cell killing more active than BEI” value ([1]; ET 100:1) was 129%, the “NK cell killing more active than lentinan” value ([1]; ET 100:1) was 130% and the “stimulated NK cells more cytotoxic than the control” value ([1]; ET 100:1) was 180%. For the same substance, the “weight of the tumors with respect to the weight of the tumors treated with the control” value [2] was 28%, the “LD 50” value (oral LD 50 in rats) was “greater than 2000 mg/Kg” and the “solubility in ethanol, 2-propanol and acetone” value ([3]; ethanol, 2-propanol and acetone) was “substantially insoluble”. The water-soluble ([3]; water) was “up to 60 g/l”.
